Experimental data as given in patent publication US11008344B2, “Tricyclic heteroaryl compounds as STING activators” (Incyte Corporation, priority 2018, dated 2021).

Tested on: IRF3
Experiment: IRF3 activation assay in THP-1 Dual Cells (QUANTI-Blue reporter)
Format: cell-based
Conditions: Homo sapiens, THP1-Dual, 24 hours incubation, absorbance at 620-655 nm
Method: THP-1 Dual Cells (Invivogen) were maintained in RPMI1640 medium with addition of 10% FBS, 100 μg/mL zeocin, 10 μg/mL blasticidin. Cells were added in a 96-well flat bottom assay plate at 100,000 per well in 100 μL complete RPMI medium. Test compounds were prepared by serial dilution in complete RPMI medium and 100 μL test compounds were transferred to each corresponding well. The assay plate was incubated at 37° C., 5% CO2 for 24 hours. After the overnight incubation, 20 μL of the culture supernatants were collected, followed by addition of 180 μL of QUANTI-Blue (Invivogen) to assess IRF3 activity. The amount of IRF3 activation was assessed by reading the absorbance at 620-655 nm with a microplate reader 2 hours later. The culture supernatant from the untreated THP-1 cells was used as the negative control. To determine the NF-κB activation, another 20 μL of culture supernatant were transferred to a 96-well white plate, followed by addition of 50 μL of Quanti-Luc™ assay solution (Invivogen). The amount of NF-κB activation induced by the test compounds were determined by the luminescence above the untreated control. EC50 determination was performed by fitting the curve of percent control activity versus the log of the compound concentration using the GraphPad Prism 6.0 software.

SMILES: CCn1nc(C)cc1-c1ncc2c3cc(C(N)=O)cc(OC)c3n(C/C=C/Cn3c4nc(-c5cc(C)nn5CC)ncc4c4cc(C(N)=O)cc(OC)c43)c2n1 [Example 1, (E)-9,9′-(but-2-ene-1,4-diyl)bis(2-(1-ethyl-3-methyl-1H-pyrazol-5-yl)-8-methoxy-9H-pyrimido[4,5-b]indole-6-carboxamide)]
- EC50: ≤ 0.1 µM

SMILES: CCn1nc(C)cc1-c1ncc2c3cc(C(N)=O)cc(OCCCO)c3n(C/C=C/Cn3c4nc(-c5cc(C)nn5CC)ncc4c4cc(C(N)=O)cc(OCCCO)c43)c2n1 [Example 2, (E)-9,9′-(but-2-ene-1,4-diyl)bis(2-(1-ethyl-3-methyl-1H-pyrazol-5-yl)-8-(3-hydroxypropoxy)-9H-pyrimido[4,5-b]indole-6-carboxamide)]
- EC50: ≤ 0.1 µM
